Measurements: the OPERA property sets (Mansouri et al. 2018)

logP	Structure (SMILES)
1.64	CCC(CC)C(=O)NS(=O)(=O)c1ccccc1N
1.37	COc1ccc(S(N)(=O)=O)c(NC(=O)C(C)C)c1
1.17	CC(C)C(=O)NS(=O)(=O)c1ccccc1N
2.03	CCC(CC)C(=O)NS(=O)(=O)c1ccc(OC)cc1N
2.17	CCC(CC)C(=O)NS(=O)(=O)c1ccccc1[N+](=O)[O-]
2.67	CCC(CC)C(=O)NS(=O)(=O)c1ccc(C)cc1[N+](=O)[O-]
1.62	CCC(CC)C(=O)Nc1ccccc1S(N)(=O)=O

The remaining lines, values behind:

Structure (SMILES)	logP
CCC(CC)C(=O)NS(=O)(=O)c1cc([N+](=O)[O-])cc(C(F)(F)F)c1	3.57
Cc1ccc(S(=O)(=O)NC(=O)C(C)C)c(N)c1	1.65
CCC(CC)C(=O)Nc1cc(OC)ccc1S(N)(=O)=O	2.01
CC(C)C(=O)Nc1ccccc1S(N)(=O)=O	0.97
Cc1ccc(S(N)(=O)=O)c(NC(=O)C(C)C)c1	1.45
CCC(CC)C(=O)Nc1cc(C)ccc1S(N)(=O)=O	2.13
CCC(CC)C(=O)Nc1cc(C(F)(F)F)ccc1S(N)(=O)=O	3.06
COc1ccc(S(=O)(=O)NC(=O)C(C)C)c(N)c1	1.58
Cc1ccc(S(=O)(=O)NC(=O)C(C)C)c([N+](=O)[O-])c1	2.17
CC(C)C(=O)NS(=O)(=O)c1ccccc1[N+](=O)[O-]	1.72
CC(C)C(=O)Nc1cc(Cl)ccc1S(N)(=O)=O	1.87
